Laboratory results published in patent US20170355705A1 (GlaxoSmithKline Intellectual Property (No.2) Limited, priority 2014, published 2017).

Target: T1, SIRT1 (Homo sapiens, UniProt Q96EB6)
T1 sequence (Q96EB6 1-747): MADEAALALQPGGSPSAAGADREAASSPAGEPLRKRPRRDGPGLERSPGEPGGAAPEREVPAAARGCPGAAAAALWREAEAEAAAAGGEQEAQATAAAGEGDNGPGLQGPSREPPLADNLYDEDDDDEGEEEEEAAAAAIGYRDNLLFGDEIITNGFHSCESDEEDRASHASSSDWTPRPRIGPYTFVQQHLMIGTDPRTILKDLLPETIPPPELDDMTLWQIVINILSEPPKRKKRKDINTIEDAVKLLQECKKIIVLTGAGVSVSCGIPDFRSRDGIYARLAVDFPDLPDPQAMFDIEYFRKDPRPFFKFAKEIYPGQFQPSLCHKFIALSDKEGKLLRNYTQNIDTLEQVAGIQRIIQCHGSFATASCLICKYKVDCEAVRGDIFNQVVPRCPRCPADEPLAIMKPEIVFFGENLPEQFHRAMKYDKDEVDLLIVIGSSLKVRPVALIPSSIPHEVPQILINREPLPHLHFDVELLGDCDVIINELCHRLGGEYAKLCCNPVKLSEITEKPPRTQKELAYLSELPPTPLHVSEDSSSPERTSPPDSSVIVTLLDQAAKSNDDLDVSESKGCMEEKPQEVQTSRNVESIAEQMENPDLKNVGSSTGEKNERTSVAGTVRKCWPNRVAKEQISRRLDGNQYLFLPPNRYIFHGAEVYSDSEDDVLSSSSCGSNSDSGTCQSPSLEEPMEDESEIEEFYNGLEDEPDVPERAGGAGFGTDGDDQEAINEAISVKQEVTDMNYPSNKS
Test: Trp mass spectrometry assay of SIRT1 activity (EC1.5, percent maximum activation)
Format: biochemical
Details: Trp mass spectrometry assay; 0.5 μM peptide substrate, 120 μM βNAD+, 10 nM SIRT1, 25 minutes at 25° C.
In short: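 Mass spectrometry read-out (OAADPR formed, or deacetylated Trp peptide) after a 25 min NAD-dependent deacetylation by E. coli-expressed His-SIRT1, stopped with formic acid.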

- TRP Activity (EC1.5, concentration of test compound that results in 150% activation of SIRT1): A (EC1.5<1 μM)
- TRP MAX RESP (percent maximum fold activation): A (Fold activation ≧150%)
Compound: Cc1cc(-c2ccc3c(n2)N(C(=O)Nc2cc(-c4coc(C)n4)ccn2)[C@H]2CCN3C2)ccn1.Cl [Example 334, (4S)-N-(4-(2-methyloxazol-4-yl)pyridin-2-yl)-7-(2-methylpyridin-4-yl)-3,4-dihydro-1,4-methanopyrido[2,3-b][1,4]diazepine-5(2H)-carboxamide]
